Here are results for 7 molecules from patent US20100035904A1, “PHE[…]; METHODS OF MAKING; AND METHODS OF USE THEREOF” (priority 2008, published 2010).

Structures can show the parent of a compound that is named as a salt.

The first data set is described as follows: Analysis of residual solids from water slurry (XRPD, 1H-NMR) for form conversion. Type of data set: physicochemical. The conditions noted are these: water slurry overnight, ambient temperature.
With phenobarbital benzathine, the “stability of the salt in water slurry (conclusion)” value is recorded as “remained stable”.
On the same count and under the same terms, next, `CCC1(c2ccccc2)C(=O)NC(=O)NC1=O` [phenobarbital potassium salt, phenobarbital potassium]: “potential dissociation”; “phenobarbital betaine [phenobarbital betaine salt]”: “salt dissociation”.
On the same count and under the same terms, next, `CCC1(c2ccccc2)C(=O)[N-]C(=O)NC1=O.C[N+](C)(C)CCO` [phenobarbital choline salt, phenobarbital choline]: “remained stable”.

Experiment in the next data set: not given
The settings on record: background statement; cited from earlier work.
As to `CCC1(c2ccccc2)C(=O)NC(=O)NC1=O` [Phenobarbital sodium], the “hygroscopicity / stability in humid environments” value was “hygroscopic and degrades when exposed to humid environments”.

A further data set can be described thus: Moisture sorption experiments. Type of data set: physicochemical. The settings on record: 25° C., 0-90% RH. The procedure: Moisture sorption experiments are carried out on about 10 milligrams (mg) of sample in a Pyrex bulb by first equilibrating the sample at 25° C./40% relative humidity (RH) until an equilibrium weight is reached. The sample is then subjected to an isothermal (25° C.) adsorption scan from 40 to 90% RH in steps of 10% RH. The sample is allowed to equilibrate to either an asymptotic weight or a maximum of four hours for each relative humidity. A desorption scan from 90 to 0% RH (at 25° C.) is then run in steps of −10% again allowing a maximum of four hours for equilibration or an asymptotic weight. Following desorption, an adsorption scan is performed from 0% RH to the initial 40% RH. The sample is then dried for one hour at 80° C. to obtain the dry weight.
For phenobarbital benzathine, the “hygroscopicity (moisture sorption analysis)” value is on record as “nonhygroscopic”.
On the same count and under the same terms, next, `CCC1(c2ccccc2)C(=O)NC(=O)NC1=O` [Phenobarbital free form, 5-ethyl-5-phenyl-2,4,6(1H,3H,5H)-pyrimidinetrione, reference compound]: “nonhygroscopic”; `CCC1(c2ccccc2)C(=O)NC(=O)NC1=O` [phenobarbital sodium salt, phenobarbital sodium]: “hygroscopic”; “phenobarbital betaine [phenobarbital betaine salt]”: “hygroscopic”.
Take `CCC1(c2ccccc2)C(=O)[N-]C(=O)NC1=O.C[N+](C)(C)CCO` [phenobarbital choline salt, phenobarbital choline]: the “hygroscopicity (moisture sorption analysis)” value is on record as “hygroscopic”.

Still in this data set, the particulars now being: 25° C., 10-60% RH.
Turning to `CCC1(c2ccccc2)C(=O)NC(=O)NC1=O` [phenobarbital sodium salt, phenobarbital sodium], the “water adsorbed between 10-60% RH” value is recorded as “approximately 2 wt %”.

Still in this data set, the particulars now being: 25° C., 90% RH.
As to phenobarbital benzathine, the “water adsorbed at 90% RH” value stood at 1.0 wt %.
The same measure, in the same setting: the value for `CCC1(c2ccccc2)C(=O)NC(=O)NC1=O` [Phenobarbital free form, 5-ethyl-5-phenyl-2,4,6(1H,3H,5H)-pyrimidinetrione, reference compound] was 0.1 wt %.
Still for that read-out and setting: the value for `CCC1(c2ccccc2)C(=O)NC(=O)NC1=O` [phenobarbital sodium salt, phenobarbital sodium] was “approximately 34 wt %”; that for “phenobarbital betaine [phenobarbital betaine salt]” was 28.1 wt %.
For the molecule `CCC1(c2ccccc2)C(=O)[N-]C(=O)NC1=O.C[N+](C)(C)CCO` [phenobarbital choline salt, phenobarbital choline], the “water adsorbed at 90% RH” value is listed as 23 wt %.

The data set is the same for the next values; noted with them: after sorption/desorption and drying.
As for phenobarbital benzathine, the “XRPD pattern of material following the moisture sorption experiment” value was “consistent with the initial material”.
Still for that read-out and setting: next, `CCC1(c2ccccc2)C(=O)NC(=O)NC1=O` [Phenobarbital free form, 5-ethyl-5-phenyl-2,4,6(1H,3H,5H)-pyrimidinetrione, reference compound]: “consistent with the initial phenobarbital starting material”.
On the same count and under the same terms, the value for `CCC1(c2ccccc2)C(=O)NC(=O)NC1=O` [phenobarbital sodium salt, phenobarbital sodium] was “shows differences in comparison to the diffraction pattern of the initial material”; that for “phenobarbital betaine [phenobarbital betaine salt]” was “consistent with the initial material”.
`CCC1(c2ccccc2)C(=O)[N-]C(=O)NC1=O.C[N+](C)(C)CCO` [phenobarbital choline salt, phenobarbital choline]: the “XRPD pattern of material following the moisture sorption experiment” value is “consistent with the initial material”.

Still in this data set, the particulars now being: desorption, 40-5% RH.
`CCC1(c2ccccc2)C(=O)NC(=O)NC1=O` [phenobarbital sodium salt, phenobarbital sodium]: the “water content at which the desorption curve stabilizes” value is on record as “approximately 12 wt %”.

A short description of another data set: Stability of the salt in seven day toluene slurry (XRPD). The settings on record: ambient temperature, seven days. The class given is physicochemical. The procedure:
Stability of the salt is evaluated using a seven day toluene slurry. Each salt (about 10-20 mg) is slurried in 250 microliters of toluene at ambient temperature for seven days in a 4 ml vial. After seven days, each sample is filtered and dried overnight at ambient temperature under vacuum. The samples are then analyzed by XRPD.
As for `CCC1(c2ccccc2)C(=O)NC(=O)NC1=O` [phenobarbital sodium salt, phenobarbital sodium], the “XRPD of material following seven day toluene slurry” value was “amorphous”.
Still for that read-out and setting: the value for “phenobarbital betaine [phenobarbital betaine salt]” was “consistent with the initial material”; that for `CCC1(c2ccccc2)C(=O)[N-]C(=O)NC1=O.C[N+](C)(C)CCO` [phenobarbital choline salt, phenobarbital choline] was “consistent with the initial material”.
